Where two headings read alike, the source gives them in different places.
Experiments:
[1] = Loading efficiency of cargo into polymersomes by fluorescence; assay type: physicochemical; settings: FNP, single cargo, FIG. 4A
Procedure: The loading efficiency of the target molecule in the nanocarriers by the methods of the present invention is measured as the ratio of target molecule encapsulated within the nanocarrier to the total amount of target molecule available for loading in the initial solution. The loading efficiency is typically greater than about 40% for both proteins and hydrophobic molecules (i.e., […], about 40%, about 45%, about 50%, about 60%, about 70%, about 80%, about 85%, about 90%, or any percentages in between). In some embodiments of the invention, the loading efficiency is greater than at least 45%.
Nanocarriers were formed using the confined impingement jets (CIJ) mixer described by Han et al. PEG-bl-PPS copolymers and hydrophobic molecules to be loaded within polymersomes were dissolved in 500 μL of tetrahydrofuran (THF) and placed into a 1 mL plastic disposable syringe. […] For fluorescence measurements, samples were taken both before and after column purification to assess loading efficiency. […]
Fluorescence and absorbance measurements were taken on a SpectraMax M3 microplate reader (Molecular Devices). All readings were taken in black-walled clear bottom 96-well plates (Corning 07-200-567), at 100 μL volumes. All readings were normalized to a 100 μL 1×PBS blank control. […] NBT diformazan was detected via absorbance at 620 nm.

[2] = ZINC15 database, cited from earlier work

## O=C(O)CN(CC(=O)O)Cc1cc2c(cc1O)Oc1cc(O)c(CN(CC(=O)O)CC(=O)O)cc1C21OC(=O)c2ccccc21 [Calcein, calcein]
[1]
  loading efficiency into polymersomes: lowest loading efficiency
[2]
  logP Values: 1.608
[2]; listed as calcein
  logP Values: 1.6

## CCOC(=O)c1ccccc1-c1c2cc(Br)c(=O)c(Br)c-2oc2c(Br)c([O-])c(Br)cc12.[K+] [Ethyl Eosin, ethyl eosin]
[1]
  loading efficiency into polymersomes: very high loading efficiencies

## CO[C@H]1C[C@@H]2CC[C@@H](C)[C@@](O)(O2)C(=O)C(=O)N2CCCC[C@H]2C(=O)O[C@H]([C@H](C)C[C@@H]2CC[C@@H](O)[C@H](OC)C2)CC(=O)[C@H](C)/C=C(\C)[C@@H](O)[C@@H](OC)C(=O)[C@H](C)C[C@H](C)/C=C/C=C/C=C/1C [Rapamycin, rapamycin]
[2]
  logP Values: 6.181

Reference: US12162997B2, “Facile assembly of soft nanoarchitectures and co-loading of hydrophilic and hydrophobic molecules via flash nanoprecipitation” (Northwestern University, priority 2016, dated 2024)
